The target of assay [1] is T1, SARS-CoV-2 PLpro-NAB (Severe acute respiratory syndrome coronavirus 2, UniProt P0DTD1). Type of assay: biochemical.
Assay [2] concerns the target T1, SARS-CoV-2 PLpro-NAB. Put plainly: biochemical. The settings on record: Table S1; for HC PLpro-NAB SARS-CoV-2 inhibition [%] 20 µM triplicates DTT BUFFER / HP PLpro-NAB SARS-CoV-2 inhibition [%] 20 µM triplicates L-CYS BUFFER / inhibition at 20 µM: average (SD).
The mark [3] stands for this setting: DTT buffer, read-out: HP PLpro-NAB SARS-CoV-2 IC50 [µM] triplicates DTT BUFFER.
The mark [4] stands for this setting: L-cysteine buffer, read-out: HP PLpro-NAB SARS-CoV-2 IC50 [µM] duplicates L-CYS BUFFER.
The mark [5] stands for this setting: DTT buffer, read-out: HC PLpro-NAB SARS-CoV-2 inhibition [%] 20 µM triplicates DTT BUFFER.
Where [6] appears, read: L-cysteine buffer, read-out: HP PLpro-NAB SARS-CoV-2 inhibition [%] 20 µM triplicates L-CYS BUFFER.

Read-outs that look alike come from different tables or passages of the source. * marks the point of attachment. AMC = Cc1cc(=O)oc2cc(N*)ccc12; Cbz = O=C(OCc1ccccc1)*

The Km is the concentration of substrate that gives half-maximal velocity. For orientation: IC50 means the midpoint of a concentration-inhibition curve. Usually inhibition stands for the drop in the measured response relative to a control, in per cent.

In the case of Cbz-LRGG-{AMC}, in assay [1], the Km was determined as 45.2 µM and the Vmax is listed as 173 041 /min.
Regarding `C[n+]1c2cc(N)ccc2cc2ccc(N)cc21.[Cl-]` [Acriflavinium Hydrochloride], the “HC PLpro-NAB SARS-CoV-2 inhibition [%] 20 µM triplicates DTT BUFFER” value in assay [2] (DTT buffer) was 27.57 (6.10) %. The “HP PLpro-NAB SARS-CoV-2 inhibition [%] 20 µM triplicates L-CYS BUFFER” value in assay [2] (L-cysteine buffer) was -99.55 (4.20) %. For the same compound, the IC50 is 12.4 µM in assay [2] (setting [3]) and > 20 µM in assay [2] (setting [4]).
The matching figures for Ryuvidine: 159.90 (1.27) %, -33.69 (4.70) %, 0.26 µM and > 20 µM.
Consider `Cc1cccc2c3c(ccc12)C1=C(C(=O)C3=O)[C@@H](C)CO1` [Dihydrotanshinone I], for which the inhibition at 20 µM in assay [2] (setting [5]) was 80.7%; in assay [2] (setting [6]), -176%. Also, the IC50 was 0.92 µM in assay [2] (setting [3]) and > 20 µM in assay [2] (setting [4]).
Take `CCOC(=O)C1=C(C)N=c2sc(=Cc3ccc(OCC(=O)O)cc3)c(=O)n2C1c1ccc(SC)cc1` (stereo not drawn) [ML120]: the “HC PLpro-NAB SARS-CoV-2 inhibition [%] 20 µM triplicates DTT BUFFER” value in assay [2] (DTT buffer) is recorded as 82.78 (2.58) %. Moreover, the “HP PLpro-NAB SARS-CoV-2 inhibition [%] 20 µM triplicates L-CYS BUFFER” value in assay [2] (L-cysteine buffer) was -56.07 (10.54) %. Also, the IC50 is 3.14 µM in assay [2] (setting [3]) and > 20 µM in assay [2] (setting [4]).
On to `CN(C)CCNc1nc2cc(O)ccc2c2c1C(=O)c1ccccc1-2.Cl.Cl` [TAS-103 (dihydrochloride)], for which the “HC PLpro-NAB SARS-CoV-2 inhibition [%] 20 µM triplicates DTT BUFFER” value in assay [2] (DTT buffer) is 154.91 (1.47) %. The “HP PLpro-NAB SARS-CoV-2 inhibition [%] 20 µM triplicates L-CYS BUFFER” value in assay [2] (L-cysteine buffer) is reported as 17.75 (9.12) %. Also, the IC50 in assay [2] (setting [3]) is 5.94 µM; in assay [2] (setting [4]), > 20 µM.
As to `COc1cccc2c(NCc3ccccc3)nc(-n3c(N)nc4ccccc43)nc12` [ML240], the “HC PLpro-NAB SARS-CoV-2 inhibition [%] 20 µM triplicates DTT BUFFER” value in assay [2] (DTT buffer) is 93.76 (13.43) %. Besides, in assay [2] (L-cysteine buffer), the “HP PLpro-NAB SARS-CoV-2 inhibition [%] 20 µM triplicates L-CYS BUFFER” value was -11.93 (4.14) %. Moreover, the IC50 in assay [2] (setting [3]) and in assay [2] (setting [4]) was > 20 µM in each case.
As for `CC[n+]1c(-c2ccccc2)c2cc(N)ccc2c2ccc(N)cc21` [Homidium Bromide], the values for the inhibition at 20 µM in assay [2] (setting [5]) and in assay [2] (setting [6]) were 149% and 18.3%, respectively. The IC50 in assay [2] (setting [3]) is 13.7 µM; in assay [2] (setting [4]), > 20 µM.

For the origin of these results see publication PMC11729419, “Thiol-Reactive or Redox-Active: Revising a Repurposing Screen Led to a New Invalidation Pipeline and Identified a True Noncovalent Inhibitor Against Papain-like Protease from SARS-CoV-2” (ACS Pharmacology & Translational Science, 2024).
